Source: the supplement of paper PMC13380429

How the values were obtained:
Details in all cases: 72 h
Caco-2 [1] = experiment: cell viability relative to DMSO; higher = less toxic
Calu-3 [2] = experiment: as above
HepG2 [3] = experiment: as above
U2OS [4] = experiment: as above
Vero E6 [5] = experiment: as above
Caco-2 [6] = experiment: relative viability EC50 (midpoint between 100% and the lowest measured viability); higher = less toxic
HepG2 [7] = experiment: as above
U2OS [8] = experiment: as above
Caco-2 [9] = experiment: drug sensitivity score (DSS) for viability; higher = more toxic; extreme values may be limits of the assay
Calu-3 [10] = experiment: as above
HepG2 [11] = experiment: as above
U2OS [12] = experiment: as above
Vero E6 [13] = experiment: as above
Calu-3 [14] = experiment: relative viability EC50 (midpoint between 100% and the lowest measured viability); higher = less toxic

CC(=O)O[C@H]1C(=O)[C@@]2(C)[C@H]([C@H](OC(=O)c3ccccc3)[C@]3(O)C[C@H](OC(=O)[C@H](O)[C@@H](NC(=O)c4ccccc4)c4ccccc4)C(C)=C1C3(C)C)[C@]1(OC(C)=O)CO[C@@H]1C[C@@H]2O [paclitaxel]
cell viability (Caco-2 [1]; 1 nM): 109%
cell viability (Caco-2 [1]; 10 nM): 84.8%
cell viability (Caco-2 [1]; 100 nM): 61.7%
cell viability (Caco-2 [1]; 1000 nM): 57%
cell viability (Caco-2 [1]; 10000 nM): 48.7%
cell viability (Calu-3 [2]; 1 nM): 97.9%
cell viability (Calu-3 [2]; 10 nM): 64.3%
cell viability (Calu-3 [2]; 100 nM): 62.6%
cell viability (Calu-3 [2]; 1000 nM): 68.5%
cell viability (Calu-3 [2]; 10000 nM): 65.7%
cell viability (HepG2 [3]; 1 nM): 108%
cell viability (HepG2 [3]; 10 nM): 64.9%
cell viability (HepG2 [3]; 100 nM): 42.8%
cell viability (HepG2 [3]; 1000 nM): 36.5%
cell viability (HepG2 [3]; 10000 nM): 34.4%
cell viability (U2OS [4]; 1 nM): 101%
cell viability (U2OS [4]; 10 nM): 67.9%
cell viability (U2OS [4]; 100 nM): 32.9%
cell viability (U2OS [4]; 1000 nM): 30.3%
cell viability (U2OS [4]; 10000 nM): 26.3%
cell viability (Vero E6 [5]; 1 nM): 103%
cell viability (Vero E6 [5]; 10 nM): 98.3%
cell viability (Vero E6 [5]; 100 nM): 91.6%
cell viability (Vero E6 [5]; 1000 nM): 59.8%
cell viability (Vero E6 [5]; 10000 nM): 74.2%
relative viability EC50 (Caco-2 [6]): 0.0334 µM
relative viability EC50 (HepG2 [7]): 0.0095 µM
relative viability EC50 (U2OS [8]): 0.0128 µM
drug sensitivity score (Caco-2 [9]): 14.7
drug sensitivity score (Calu-3 [10]): 16.4
drug sensitivity score (HepG2 [11]): 24.9
drug sensitivity score (U2OS [12]): 25.9
drug sensitivity score (Vero E6 [13]): 8.6

N=C(N)c1ccc(OCCCCCOc2ccc(C(=N)N)cc2)cc1 [pentamidine]
cell viability (Caco-2 [1]; 1 nM): 90.1%
cell viability (Caco-2 [1]; 10 nM): 93.4%
cell viability (Caco-2 [1]; 100 nM): 92.2%
cell viability (Caco-2 [1]; 1000 nM): 93.9%
cell viability (Caco-2 [1]; 10000 nM): 71.7%
cell viability (Calu-3 [2]; 1 nM): 94.7%
cell viability (Calu-3 [2]; 10 nM): 104%
cell viability (Calu-3 [2]; 100 nM): 104%
cell viability (Calu-3 [2]; 1000 nM): 96%
cell viability (Calu-3 [2]; 10000 nM): 94.5%
cell viability (HepG2 [3]; 1 nM): 104%
cell viability (HepG2 [3]; 10 nM): 97.5%
cell viability (HepG2 [3]; 100 nM): 105%
cell viability (HepG2 [3]; 1000 nM): 22.5%
cell viability (HepG2 [3]; 10000 nM): 18.3%
cell viability (U2OS [4]; 1 nM): 105%
cell viability (U2OS [4]; 10 nM): 105%
cell viability (U2OS [4]; 100 nM): 101%
cell viability (U2OS [4]; 1000 nM): 96.3%
cell viability (U2OS [4]; 10000 nM): 71.5%
cell viability (Vero E6 [5]; 1 nM): 107%
cell viability (Vero E6 [5]; 10 nM): 65.4%
cell viability (Vero E6 [5]; 100 nM): 92.6%
cell viability (Vero E6 [5]; 1000 nM): 79.8%
cell viability (Vero E6 [5]; 10000 nM): 82.9%
relative viability EC50 (Calu-3 [14]): > 10 µM
relative viability EC50 (HepG2 [7]): 0.39 µM
drug sensitivity score (Caco-2 [9]): 1.9
drug sensitivity score (Calu-3 [10]): 0
drug sensitivity score (HepG2 [11]): 13.9
drug sensitivity score (U2OS [12]): 1.8
drug sensitivity score (Vero E6 [13]): 3.4

Cc1nc(=O)c2cc(CN(C)c3ccc(C(=O)N[C@@H](CCC(=O)O)C(=O)O)s3)ccc2[nH]1 [raltitrexed]
cell viability (Caco-2 [1]; 1 nM): 91.2%
cell viability (Caco-2 [1]; 10 nM): 99%
cell viability (Caco-2 [1]; 100 nM): 64.2%
cell viability (Caco-2 [1]; 1000 nM): 59.9%
cell viability (Caco-2 [1]; 10000 nM): 50.1%
cell viability (Calu-3 [2]; 1 nM): 103%
cell viability (Calu-3 [2]; 10 nM): 104%
cell viability (Calu-3 [2]; 100 nM): 87.4%
cell viability (Calu-3 [2]; 1000 nM): 92.6%
cell viability (Calu-3 [2]; 10000 nM): 85.8%
cell viability (HepG2 [3]; 1 nM): 111%
cell viability (HepG2 [3]; 10 nM): 104%
cell viability (HepG2 [3]; 100 nM): 70.7%
cell viability (HepG2 [3]; 1000 nM): 60.7%
cell viability (HepG2 [3]; 10000 nM): 65.1%
cell viability (U2OS [4]; 1 nM): 99.1%
cell viability (U2OS [4]; 10 nM): 105%
cell viability (U2OS [4]; 100 nM): 100%
cell viability (U2OS [4]; 1000 nM): 97.4%
cell viability (U2OS [4]; 10000 nM): 95.8%
cell viability (Vero E6 [5]; 1 nM): 98.8%
cell viability (Vero E6 [5]; 10 nM): 101%
cell viability (Vero E6 [5]; 100 nM): 66.1%
cell viability (Vero E6 [5]; 1000 nM): 62.9%
cell viability (Vero E6 [5]; 10000 nM): 66.6%
relative viability EC50 (Calu-3 [14]): > 10 µM
relative viability EC50 (U2OS [8]): > 10 µM
drug sensitivity score (Caco-2 [9]): 13.4
drug sensitivity score (Calu-3 [10]): 2
drug sensitivity score (HepG2 [11]): 10.5
drug sensitivity score (U2OS [12]): 0
drug sensitivity score (Vero E6 [13]): 10.7

O=C(O)c1cn(-c2ccc(F)cc2)c2cc(N3CCNCC3)c(F)cc2c1=O [sarafloxacin]
cell viability (Caco-2 [1]; 1 nM): 98.3%
cell viability (Caco-2 [1]; 10 nM): 87.3%
cell viability (Caco-2 [1]; 100 nM): 95.6%
cell viability (Caco-2 [1]; 1000 nM): 98%
cell viability (Caco-2 [1]; 10000 nM): 97.4%
cell viability (Calu-3 [2]; 1 nM): 93.1%
cell viability (Calu-3 [2]; 10 nM): 95.7%
cell viability (Calu-3 [2]; 100 nM): 102%
cell viability (Calu-3 [2]; 1000 nM): 99.7%
cell viability (Calu-3 [2]; 10000 nM): 101%
cell viability (HepG2 [3]; 1 nM): 113%
cell viability (HepG2 [3]; 10 nM): 98.8%
cell viability (HepG2 [3]; 100 nM): 101%
cell viability (HepG2 [3]; 1000 nM): 94.4%
cell viability (HepG2 [3]; 10000 nM): 99.6%
cell viability (U2OS [4]; 1 nM): 101%
cell viability (U2OS [4]; 10 nM): 108%
cell viability (U2OS [4]; 100 nM): 99.2%
cell viability (U2OS [4]; 1000 nM): 100%
cell viability (U2OS [4]; 10000 nM): 97.4%
relative viability EC50 (Caco-2 [6]): > 10 µM
relative viability EC50 (Calu-3 [14]): > 10 µM
relative viability EC50 (HepG2 [7]): > 10 µM
relative viability EC50 (U2OS [8]): > 10 µM
drug sensitivity score (Caco-2 [9]): 0
drug sensitivity score (Calu-3 [10]): 0
drug sensitivity score (HepG2 [11]): 0
drug sensitivity score (U2OS [12]): 0

C[C@]1(Cn2ccnn2)[C@H](C(=O)O)N2C(=O)C[C@H]2S1(=O)=O [tazobactam]
cell viability (Caco-2 [1]; 1 nM): 81.7%
cell viability (Caco-2 [1]; 10 nM): 96.4%
cell viability (Caco-2 [1]; 100 nM): 91.3%
cell viability (Caco-2 [1]; 1000 nM): 94.6%
cell viability (Caco-2 [1]; 10000 nM): 85.4%
cell viability (Calu-3 [2]; 1 nM): 93.2%
cell viability (Calu-3 [2]; 10 nM): 98.7%
cell viability (Calu-3 [2]; 100 nM): 91.6%
cell viability (Calu-3 [2]; 1000 nM): 94.3%
cell viability (Calu-3 [2]; 10000 nM): 105%
cell viability (HepG2 [3]; 1 nM): 107%
cell viability (HepG2 [3]; 10 nM): 102%
cell viability (HepG2 [3]; 100 nM): 97.4%
cell viability (HepG2 [3]; 1000 nM): 113%
cell viability (HepG2 [3]; 10000 nM): 107%
cell viability (U2OS [4]; 1 nM): 95.4%
cell viability (U2OS [4]; 10 nM): 102%
cell viability (U2OS [4]; 100 nM): 98.9%
cell viability (U2OS [4]; 1000 nM): 100%
cell viability (U2OS [4]; 10000 nM): 95.6%
relative viability EC50 (Caco-2 [6]): > 10 µM
relative viability EC50 (Calu-3 [14]): > 10 µM
relative viability EC50 (HepG2 [7]): > 10 µM
relative viability EC50 (U2OS [8]): > 10 µM
drug sensitivity score (Caco-2 [9]): 0
drug sensitivity score (Calu-3 [10]): 0
drug sensitivity score (HepG2 [11]): 0
drug sensitivity score (U2OS [12]): 0

CO[C@H]1C[C@@H]2CC[C@@H](C)[C@@](O)(O2)C(=O)C(=O)N2CCCC[C@H]2C(=O)O[C@H]([C@H](C)C[C@@H]2CC[C@H](n3cnnn3)[C@H](OC)C2)CC(=O)[C@H](C)/C=C(\C)[C@@H](O)[C@@H](OC)C(=O)[C@H](C)C[C@H](C)/C=C/C=C/C=C/1C [zotarolimus]
cell viability (Caco-2 [1]; 1 nM): 82.5%
cell viability (Caco-2 [1]; 10 nM): 63.1%
cell viability (Caco-2 [1]; 100 nM): 60%
cell viability (Caco-2 [1]; 1000 nM): 52.9%
cell viability (Caco-2 [1]; 10000 nM): 60.3%
cell viability (Calu-3 [2]; 1 nM): 68.2%
cell viability (Calu-3 [2]; 10 nM): 59.4%
cell viability (Calu-3 [2]; 100 nM): 54.5%
cell viability (Calu-3 [2]; 1000 nM): 46.3%
cell viability (Calu-3 [2]; 10000 nM): 52.2%
cell viability (HepG2 [3]; 1 nM): 84.4%
cell viability (HepG2 [3]; 10 nM): 74%
cell viability (HepG2 [3]; 100 nM): 63.1%
cell viability (HepG2 [3]; 1000 nM): 62.9%
cell viability (HepG2 [3]; 10000 nM): 61.1%
cell viability (U2OS [4]; 1 nM): 93.4%
cell viability (U2OS [4]; 10 nM): 61.8%
cell viability (U2OS [4]; 100 nM): 60.2%
cell viability (U2OS [4]; 1000 nM): 56.9%
cell viability (U2OS [4]; 10000 nM): 52.5%
cell viability (Vero E6 [5]; 1 nM): 92.6%
cell viability (Vero E6 [5]; 10 nM): 85.2%
cell viability (Vero E6 [5]; 100 nM): 69.6%
cell viability (Vero E6 [5]; 1000 nM): 61%
cell viability (Vero E6 [5]; 10000 nM): 58.7%
relative viability EC50 (Calu-3 [14]): < 0.001 µM
drug sensitivity score (Caco-2 [9]): 19.5
drug sensitivity score (Calu-3 [10]): 22.1
drug sensitivity score (HepG2 [11]): 15.4
drug sensitivity score (U2OS [12]): 19.9
drug sensitivity score (Vero E6 [13]): 11.9
